Laboratory results as given in US20100099113A1, “MINIMIZED SMALL PEPTIDES WITH HIGH AFFINITY FOR FACTOR VIII AND FACTOR VIII-LIKE PROTEINS” (Technische Universitat Muenchen, priority 2006, published 2010).
Where no end group is shown, it is not given here. [ ]: non-standard residue; d: D form. Bpa = N[C@@H](Cc1ccc(C(=O)c2ccccc2)cc1)C(=O)O; 2Nal = N[C@@H](Cc1ccc2ccccc2c1)C(=O)O; Abu = CC[C@H](N)C(=O)O

How the values were obtained:
ReFacto = molecular target: T1, ReFacto (Homo sapiens, UniProt P00451, DEL763-1656); test: Binding of ReFacto to peptide-coated resin; conditions: peptide immobilized on resin; Table 1
T1 construct: purchased Wyeth-Ayerst Pharmacia and Upjohn; host or cells: CHO cells
T1 sequence (P00451 with tags, fused parts or gaps DEL763-1656 limits assumed): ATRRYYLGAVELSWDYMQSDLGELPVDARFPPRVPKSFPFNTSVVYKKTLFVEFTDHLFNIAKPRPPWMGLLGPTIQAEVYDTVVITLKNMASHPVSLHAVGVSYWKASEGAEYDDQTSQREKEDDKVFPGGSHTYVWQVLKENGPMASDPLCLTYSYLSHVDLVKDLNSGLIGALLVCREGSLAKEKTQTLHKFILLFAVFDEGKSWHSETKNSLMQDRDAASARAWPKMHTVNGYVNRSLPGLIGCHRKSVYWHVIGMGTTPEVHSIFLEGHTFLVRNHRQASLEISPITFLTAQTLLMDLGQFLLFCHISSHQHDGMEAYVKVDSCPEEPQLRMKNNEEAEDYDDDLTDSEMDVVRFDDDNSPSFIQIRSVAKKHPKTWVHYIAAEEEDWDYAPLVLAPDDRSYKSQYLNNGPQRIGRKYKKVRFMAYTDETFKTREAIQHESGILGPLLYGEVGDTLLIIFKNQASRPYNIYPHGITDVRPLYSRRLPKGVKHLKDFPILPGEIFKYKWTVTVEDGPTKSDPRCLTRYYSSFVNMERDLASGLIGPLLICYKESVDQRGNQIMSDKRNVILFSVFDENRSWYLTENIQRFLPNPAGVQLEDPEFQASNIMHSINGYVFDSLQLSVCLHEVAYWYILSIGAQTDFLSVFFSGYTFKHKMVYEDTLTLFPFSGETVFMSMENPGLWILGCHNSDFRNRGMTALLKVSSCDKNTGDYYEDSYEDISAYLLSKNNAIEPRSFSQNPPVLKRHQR
T1 sequence (P00451 1668-2351 limits assumed): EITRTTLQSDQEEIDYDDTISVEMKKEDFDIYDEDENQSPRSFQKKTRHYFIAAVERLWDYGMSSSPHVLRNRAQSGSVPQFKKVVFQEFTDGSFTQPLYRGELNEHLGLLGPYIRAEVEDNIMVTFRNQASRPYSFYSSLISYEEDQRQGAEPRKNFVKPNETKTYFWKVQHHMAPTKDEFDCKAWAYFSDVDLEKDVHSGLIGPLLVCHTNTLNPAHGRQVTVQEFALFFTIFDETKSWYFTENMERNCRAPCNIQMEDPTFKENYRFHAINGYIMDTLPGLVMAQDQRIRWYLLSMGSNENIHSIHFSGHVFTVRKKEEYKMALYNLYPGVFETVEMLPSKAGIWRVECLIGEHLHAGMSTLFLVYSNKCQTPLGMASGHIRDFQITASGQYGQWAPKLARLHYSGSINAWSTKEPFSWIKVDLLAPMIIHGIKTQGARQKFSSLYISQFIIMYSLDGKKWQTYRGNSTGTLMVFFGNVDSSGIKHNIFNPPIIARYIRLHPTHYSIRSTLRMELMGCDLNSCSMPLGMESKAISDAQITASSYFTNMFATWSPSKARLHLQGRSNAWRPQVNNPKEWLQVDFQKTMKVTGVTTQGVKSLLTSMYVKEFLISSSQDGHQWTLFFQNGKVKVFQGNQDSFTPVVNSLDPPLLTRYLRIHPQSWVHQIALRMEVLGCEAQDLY

[1] = molecular target: T2, Plasma-derived (pd-) human Factor VIII (Homo sapiens, UniProt P00451); test: Binding of 125I-labeled pd-FVIII to peptide-coated Toyopearl resin (micro-beads assay); conditions: peptide immobilized on Toyopearl AF-Epoxy-650M resin; 125I-pd-FVIII, 2 hours room temperature; percent of maximal achievable binding (anti-FVIII Mab 8860-coated resin); mean ± SD of four determinations
T2 construct: from tissue; host or cells: human blood plasma (FVIII concentrate)
Method: Peptides S1 to S84 were immobilized on the Toyopearl AF-Epoxy-650M resin (Tosoh Biosep) as described by Jungbauer et al. For immobilization, 2.5 mg of each peptide was dissolved in 0.25 mL of the immobilization buffer (0.2 M sodium bicarbonate, pH 10.3), and 0.036 g of the dry resin powder (corresponding to 0.125 mL of swollen resin) was added, followed by incubation of the mixture with gentle rotation for 48 hours. Upon incubation for 48 hours the resin was washed once with immobilization buffer, once with 1 M NaCl and then 3 times with binding buffer, and binding of ^125I-labeled pd-FVIII to the peptide-coated and control resin was tested. The coupling density of each peptide in each of the reported experiments was as mentioned in Table 1. The control 0.25 mL portion of the resin was similarly treated in parallel experiment in the absence of peptide and was subsequently used as a control (designated as Background) in ^125I-pd-FVIII binding experiments. ^125I-pd-FVIII Bound/Background ratios were calculated as the amount of ^125I-pd-FVIII, bound to an immobilized peptide, divided by that bound to uncoated control resin, prepared as described above. This ratio represents a Signal/Noise ratio for the micro-beads assay, since ^125I-pd-FVIII bound to peptide represents the signal value and ^125I-pd-FVIII bound to peptide-uncoated resin represents the background (noise) value.
Plasma-derived (pd-) human Factor VIII (FVIII) was purified from concentrate by immunoaffinity chromatography on an anti-FVIII monoclonal antibody column followed by subsequent concentration of pd-FVIII by ion-exchange chromatography using Resource Q HR5/5 column.
The resin with immobilized peptides was washed in the binding buffer (0.01 M Hepes, 0.1 M NaCl, 5 mM CaCl2, 0.01% Tween-80). Subsequently, the resin was diluted in the binding buffer as 1:7 slurry and aliquoted into Eppendorf tubes (40 μL per tube). ^125I-pd-FVIII (100000 cpm in 10 μL) was added to the tubes and the volume of the mixture was adjusted to 100 μL by adding 50 μL of the binding buffer containing 4% BSA to give a 2% final concentration of BSA. After 2 hours of incubation at room temperature on a rotator, the samples were washed 4 times in the binding. After each wash the tubes were centrifuged at 5000 rpm for 1 min in an Eppendorf microcentrifuge, supernatant was discarded, and the resin was re-suspended in the washing buffer, followed by centrifugation under the same conditions. After four washes the tubes with pellet without supernatant were counted for radioactivity. The resin without peptide was processed similarly to account for non-specific pd-FVIII binding to tubes and resin itself, and the radioactivity in this control tube was considered as a background value. Since ^125I-pd-FVIII contains the some fraction damaged during radiolabeling, binding was calculated as a percent of maximal achievable binding, determined in separate experiment with anti-FVIII Mab 8860-coated resin.
All the measurements were performed in duplicates. Each experiment was performed using two independently prepared immobilized peptide samples. The data presented in each table are the mean values of the four determinations: duplicate determination in the two assays performed with beads on which peptides were independently immobilized on the different days. The value of standard deviation of the above quadruplicate determinations (duplicate determinations in two independent experiments) were typically less than 10% of the measured values of ^125I-pd-FVIII binding to peptides.

T2 sequence (P00451 20-1667 limits assumed, one chain of several): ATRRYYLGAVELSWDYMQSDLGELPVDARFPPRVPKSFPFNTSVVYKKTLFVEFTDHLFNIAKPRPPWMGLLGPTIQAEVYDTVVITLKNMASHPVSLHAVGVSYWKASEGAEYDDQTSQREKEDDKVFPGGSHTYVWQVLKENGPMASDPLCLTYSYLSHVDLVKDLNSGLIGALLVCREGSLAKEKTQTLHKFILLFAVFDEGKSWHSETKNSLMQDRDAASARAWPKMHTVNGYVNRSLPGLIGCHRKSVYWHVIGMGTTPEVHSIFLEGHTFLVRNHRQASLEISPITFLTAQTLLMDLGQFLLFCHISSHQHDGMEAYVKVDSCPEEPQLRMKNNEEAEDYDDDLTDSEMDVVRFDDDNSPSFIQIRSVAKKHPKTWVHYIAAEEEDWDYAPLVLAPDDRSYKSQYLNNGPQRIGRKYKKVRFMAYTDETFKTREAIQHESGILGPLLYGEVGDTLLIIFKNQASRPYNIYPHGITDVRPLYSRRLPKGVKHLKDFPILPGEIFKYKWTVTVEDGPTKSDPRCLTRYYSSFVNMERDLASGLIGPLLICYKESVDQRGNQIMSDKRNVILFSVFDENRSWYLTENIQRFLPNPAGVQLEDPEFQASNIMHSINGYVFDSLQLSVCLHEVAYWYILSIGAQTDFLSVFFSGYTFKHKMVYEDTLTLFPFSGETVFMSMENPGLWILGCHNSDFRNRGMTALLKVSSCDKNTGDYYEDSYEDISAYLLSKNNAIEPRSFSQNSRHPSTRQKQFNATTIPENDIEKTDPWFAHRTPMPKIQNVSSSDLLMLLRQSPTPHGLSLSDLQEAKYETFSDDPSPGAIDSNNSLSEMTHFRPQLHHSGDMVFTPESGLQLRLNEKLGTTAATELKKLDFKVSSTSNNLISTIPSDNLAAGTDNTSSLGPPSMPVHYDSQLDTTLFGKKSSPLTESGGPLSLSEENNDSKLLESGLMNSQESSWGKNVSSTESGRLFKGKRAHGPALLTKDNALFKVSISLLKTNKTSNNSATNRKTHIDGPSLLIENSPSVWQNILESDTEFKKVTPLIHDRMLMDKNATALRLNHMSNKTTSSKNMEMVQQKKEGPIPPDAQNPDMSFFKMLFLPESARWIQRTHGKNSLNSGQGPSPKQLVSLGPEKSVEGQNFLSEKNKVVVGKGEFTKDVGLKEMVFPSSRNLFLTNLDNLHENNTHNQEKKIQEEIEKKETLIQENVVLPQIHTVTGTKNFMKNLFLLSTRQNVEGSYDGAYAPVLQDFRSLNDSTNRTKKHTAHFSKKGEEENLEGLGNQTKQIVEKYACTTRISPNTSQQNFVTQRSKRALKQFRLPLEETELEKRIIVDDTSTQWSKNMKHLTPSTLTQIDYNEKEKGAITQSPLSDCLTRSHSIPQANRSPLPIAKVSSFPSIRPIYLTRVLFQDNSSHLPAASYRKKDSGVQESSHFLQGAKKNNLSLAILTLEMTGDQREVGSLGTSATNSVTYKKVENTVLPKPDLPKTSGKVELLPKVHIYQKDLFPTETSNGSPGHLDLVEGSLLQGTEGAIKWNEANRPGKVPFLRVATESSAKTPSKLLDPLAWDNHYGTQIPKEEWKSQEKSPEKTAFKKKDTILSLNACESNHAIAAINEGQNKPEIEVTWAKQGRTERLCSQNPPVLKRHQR

| Substance | % Binding ReFacto (ReFacto) | % Binding pdFVIII [1] |
| --- | --- | --- |
| YF[Abu]WEYC [S36] | 53.8 ± 5.0% | 62.0 ± 4.2% |
| Y-H-S-W-D-Y-C (YHSWDYC) [S48] | 40.2 ± 2.9% | 52.0 ± 3.1% |
| YH[Abu]WEYC [S54] | 44.4 ± 2.8% | 32.3 ± 2.6% |
| Ac-E-S-W-E-Y-C (Ac-ESWEYC) [S45] | 38.4 ± 2.6% | 36.4 ± 2.6% |
| YHS[2Nal]EYC [S42] | 47.8 ± 2.1% | 60.3 ± 2.2% |
| YHSWE[2Nal]C [S56] | 51.5 ± 3.4% | 51.5 ± 3.4% |
| T-W-E-Y-C [S46] | 25.1 ± 1.9% | 37.0 ± 2.1% |
| Y-H-T-W-E-Y-C (YHTWEYC) [S47] | 38.9 ± 2.8% | 47.5 ± 2.9% |
| E-S-W-E-Y-C (ESWEYC) [S44] | 35.1 ± 2.4% | 38.0 ± 2.4% |
| C-S-W-E-Y [S20] | 45.3 ± 3.1% | 48.6 ± 3.3% |
| Y-H-S-W-E-Bip(4,4′)-C [S55] | 36.2 ± 2.1% | 51.5 ± 2.9% |
| S-W-E-Phg-C [S53] | 42.5 ± 2.8% | 38.1 ± 2.7% |
| Abu-W-E-Y-C [S50] | 36.4 ± 2.4% | 35.3 ± 2.4% |
| YHS[Bpa]E[Bpa]C [S51] | 49.3 ± 3.5% | 63.4 ± 3.8% |
| YF[Abu]WEYC [S49] | 54.4 ± 3.8% | 64.5 ± 4.0% |
| YHSWE[Bpa]C [S38] | 59.2 ± 4.8% | 52.3 ± 4.1% |
| Y-H-T-W-D-Y-C (YHTWDYC) [S52] | 51.2 ± 3.4% | 47.5 ± 3.3% |
| S-W-D-Y-C [S43] | 35.6 ± 2.6% | 48.2 ± 2.8% |
